Consider 24 molecules from US20250215013A1, “SUBSTITUTED TRICYCLIC COMPOUNDS AS PARP INHIBITORS AND THE USE THEREOF” (IMPACT THERAPEUTICS (SHANGHAI), INC., priority 2022, published 2025).

Test [1] addresses PDE3A (Homo sapiens (Human), UniProt Q14432). In words: PDE3A fluorescence polarization (FP) assay. The format is biochemical. To be noted: PDE3A enzyme activity, FAM-cAMP substrate.
Description: A PDE3A fluorescence polarization (FP) assay in a multi-step format was performed using black, round bottom 384-well plates (Corning, 4514). The testing compounds were serially diluted from stock solutions to 11 concentrations with a 3-fold dilution factor using DMSO. Fifty nl of compound dilutions was mixed with 5 μl of reaction buffer (10 mM Tris-HCl, pH 7.2, 10 mM MgCl2, 0.05% NaN3, 0.1% phosphate-free BSA) containing 0.2 μM FAM-cAMP (BPS, 60200) and 2 nM PDE3A (Sino Biological, 11908-H20B1) enzyme, and incubated for 60 min at 25° C. Afterwards, 15 μl binding agent mixture (Molecular Devices, R8124) was added to each well and the plate was incubated for 60 min at 25° C. The plate was loaded to a BMG PHERAstar FSX to read Fluorescence Polarization (FP) values at a setting of: Ex: 485 nm and Em: 520 nm. Emission light intensity with polarizers parallel (Emi) and emission light intensity with polarizers perpendicular (Emi) were recorded. The Polarization (mP) values were calculated using the following formula: mP=(SignalEml−SignalEm⊥)/(SignalEml+SignalEm⊥).
• 1) The inhibition % of a compound dose is calculated as:
[formula] • wherein mPMin and mPMax refer to the polarization readings in the condition of substrate only and substrate+enzyme, respectively. • 2) The IC50 values were calculated from non-linear curve fitting using following regression equation using a commercial curve fitting software GraphPad Prism 9.2.0.
[formula] • wherein, X refers to Log of compound concentration and Y refers to % Inhibition.
The subject of test [2] is MDA-MB-436 cells. Briefly: Growth inhibition assay against BRCA mutant human breast cancer MDA-MB-436 cell line (CCK-8). Conditions: proliferation of MDA-MB-436 cells, 7 days. The test is classed as cell-based.
Test [3] deals with recombinant poly(ADP-ribose) polymerase 2 (PARP2). Briefly: PARP2 chemiluminescent assay. The test is classed as biochemical. Conditions: inhibition of PARP2 enzyme activity, chemiluminescence.
The target of test [4] is recombinant poly(ADP-ribose) polymerase 1 (PARP1) (Homo sapiens (Human), UniProt P09874).
Chain of recombinant poly(ADP-ribose) polymerase 1 (PARP1) (P09874 whole entry): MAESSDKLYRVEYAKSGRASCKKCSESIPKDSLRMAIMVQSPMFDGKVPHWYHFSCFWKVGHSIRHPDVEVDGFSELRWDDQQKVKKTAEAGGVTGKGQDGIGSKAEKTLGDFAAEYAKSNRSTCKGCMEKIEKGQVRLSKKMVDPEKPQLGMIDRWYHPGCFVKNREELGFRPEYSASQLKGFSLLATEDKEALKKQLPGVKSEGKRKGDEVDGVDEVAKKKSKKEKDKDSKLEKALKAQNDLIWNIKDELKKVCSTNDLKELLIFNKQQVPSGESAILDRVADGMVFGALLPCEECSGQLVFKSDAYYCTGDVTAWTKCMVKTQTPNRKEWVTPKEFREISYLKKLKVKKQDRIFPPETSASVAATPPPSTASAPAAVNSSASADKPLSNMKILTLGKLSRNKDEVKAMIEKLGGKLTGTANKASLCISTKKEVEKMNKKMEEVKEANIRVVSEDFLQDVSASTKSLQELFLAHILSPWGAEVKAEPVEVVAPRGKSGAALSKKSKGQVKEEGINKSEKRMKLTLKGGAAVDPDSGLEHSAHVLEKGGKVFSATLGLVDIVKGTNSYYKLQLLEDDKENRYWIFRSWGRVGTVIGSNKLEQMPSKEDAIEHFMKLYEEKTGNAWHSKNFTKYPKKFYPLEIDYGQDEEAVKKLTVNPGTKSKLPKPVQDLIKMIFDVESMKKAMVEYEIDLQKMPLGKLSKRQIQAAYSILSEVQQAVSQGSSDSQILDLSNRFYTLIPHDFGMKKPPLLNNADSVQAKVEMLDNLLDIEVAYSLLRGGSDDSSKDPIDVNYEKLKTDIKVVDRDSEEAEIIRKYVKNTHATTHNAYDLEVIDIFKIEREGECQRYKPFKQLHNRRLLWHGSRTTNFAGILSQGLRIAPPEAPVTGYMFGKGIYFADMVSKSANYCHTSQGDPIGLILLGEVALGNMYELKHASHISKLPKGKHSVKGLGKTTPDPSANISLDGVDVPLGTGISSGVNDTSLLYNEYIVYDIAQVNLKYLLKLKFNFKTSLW

SMILES strings stand for the structures.

Chain of PDE3A (Q14432 whole entry): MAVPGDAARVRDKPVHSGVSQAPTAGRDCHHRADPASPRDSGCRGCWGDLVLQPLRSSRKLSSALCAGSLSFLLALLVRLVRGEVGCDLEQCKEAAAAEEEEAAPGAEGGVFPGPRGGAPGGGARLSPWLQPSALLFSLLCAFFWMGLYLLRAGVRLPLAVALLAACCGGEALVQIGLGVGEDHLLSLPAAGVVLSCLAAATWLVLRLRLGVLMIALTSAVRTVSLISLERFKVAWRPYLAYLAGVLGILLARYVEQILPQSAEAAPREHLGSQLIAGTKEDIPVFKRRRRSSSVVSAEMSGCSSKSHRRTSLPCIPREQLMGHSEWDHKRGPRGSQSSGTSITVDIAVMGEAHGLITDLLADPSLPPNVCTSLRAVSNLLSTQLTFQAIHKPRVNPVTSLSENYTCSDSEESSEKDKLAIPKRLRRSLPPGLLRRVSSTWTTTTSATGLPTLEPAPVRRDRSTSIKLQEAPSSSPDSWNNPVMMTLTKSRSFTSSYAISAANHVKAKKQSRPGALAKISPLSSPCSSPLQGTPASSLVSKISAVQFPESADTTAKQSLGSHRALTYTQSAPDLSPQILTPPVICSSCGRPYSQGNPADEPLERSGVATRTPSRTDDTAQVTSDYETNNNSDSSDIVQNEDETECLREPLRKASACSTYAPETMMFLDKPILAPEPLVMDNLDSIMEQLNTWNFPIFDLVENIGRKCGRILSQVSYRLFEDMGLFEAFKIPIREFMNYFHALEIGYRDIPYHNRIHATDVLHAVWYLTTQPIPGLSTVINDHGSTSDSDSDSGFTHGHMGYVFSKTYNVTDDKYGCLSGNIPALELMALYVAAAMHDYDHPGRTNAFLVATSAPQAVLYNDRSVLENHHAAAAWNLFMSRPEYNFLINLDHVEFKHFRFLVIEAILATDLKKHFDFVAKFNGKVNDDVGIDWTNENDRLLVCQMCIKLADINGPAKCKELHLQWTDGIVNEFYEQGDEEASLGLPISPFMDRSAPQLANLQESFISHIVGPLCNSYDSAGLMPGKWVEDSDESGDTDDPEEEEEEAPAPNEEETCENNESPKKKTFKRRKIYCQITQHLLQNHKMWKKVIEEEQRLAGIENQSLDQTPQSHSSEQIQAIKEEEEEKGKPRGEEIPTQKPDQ

In general, IC50 refers to the point on the concentration scale where inhibition reaches its midpoint. `CNC(=O)c1ccc(N2CCN(Cc3ccc4c(c3)[nH]c(=O)c3occc34)CC2)c(C)n1` [Example 2, 7-((4-(2-methyl-6-(methylcarbamoyl)pyridin-3-yl)piperazin-1-yl)methyl)furo[2,3-c]quinolin-4(5H)-one] came in with a half-maximal inhibitory concentration (IC50) in test [1] of 1460 nM.
Turning to `CNC(=O)c1ccc(N2CCN(Cc3ccc4c(c3)[nH]c(=O)c3ccoc34)CC2)c(C)n1` [Example 6, 7-((4-(2-methyl-6-(methylcarbamoyl)pyridin-3-yl)piperazin-1-yl)methyl)furo[3,2-c]quinolin-4(5H)-one], the IC50 in test [1] was determined as 580 nM.
As to `CNC(=O)c1ccc(N2CCN(Cc3cc(F)c4c(c3)[nH]c(=O)c3occc34)CC2)c(C)n1` [Example 40, 9-fluoro-7-((4-(2-methyl-6-(methylcarbamoyl)pyridin-3-yl)piperazin-1-yl)methyl)furo[2,3-c]quinolin-4(5H)-one], the IC50 in test [2] (Homo sapiens, MDA-MB-436, […]) is 2.48 nM; in test [1] it was 690 nM.
As to `CNC(=O)c1ccc(N2CCN(Cc3ccc4c([nH]c(=O)c5ccoc54)c3F)CC2)c(C)n1` [Example 43, 7-((4-(2-methyl-6-(methylcarbamoyl)pyridin-3-yl)piperazin-1-yl)methyl)-6-fluoro-furo[3,2-c]quinolin-4(5H)-one], the IC50 was 5.86 nM in test [2] (Homo sapiens, MDA-MB-436, […]); 5580 nM in test [3]; 8570 nM in test [1]; 0.39 nM in test [4].
The corresponding values for `CNC(=O)c1ccc(N2CCN(Cc3ccc4c([nH]c(=O)c5ccoc54)c3F)CC2)c(F)n1` [Example 44, 7-((4-(2-fluoro-6-(methylcarbamoyl)pyridin-3-yl)piperazin-1-yl)methyl)-6-fluoro-furo[3,2-c]quinolin-4(5H)-one] are 3.85 nM, 898 nM, 16500 nM and 0.41 nM.
For `CNC(=O)c1ccc(N2CCN(Cc3ccc4c([nH]c(=O)c5cn[nH]c54)c3F)CC2)c(F)n1` [Example 46, 7-((4-(2-fluoro-6-(methylcarbamoyl)pyridin-3-yl)piperazin-1-yl)methyl)-6-fluoro-1,5-dihydro-4H-pyrazolo[4,3-c]quinolin-4-one], the IC50 in test [2] (Homo sapiens, MDA-MB-436, […]) was 16.5 nM; in test [3] it was 194 nM; in test [1] it was greater than 30000 nM; in test [4], 0.95 nM.
For the molecule `CNC(=O)c1ccc(N2CCN(Cc3ccc4c([nH]c(=O)n5cccc45)c3F)CC2)c(C)n1` [Example 48, 8-((4-(2-methyl-6-(methylcarbamoyl)pyridin-3-yl)piperazin-1-yl)methyl)-7-fluoropyrrolo[1,2-c]quinazolin-5(6H)-one], the half-maximal inhibitory concentration (IC50) in test [2] (Homo sapiens, MDA-MB-436, […]) was 4.58 nM; in test [3] it was 1980 nM; in test [1], greater than 30000 nM; in test [4], 1.76 nM.
With `CNC(=O)c1ccc(N2CCN(Cc3ccc4c(c3)[nH]c(=O)c3c(F)cnn34)CC2)c(F)n1` [Example 49, 7-((4-(2-fluoro-6-(methylcarbamoyl)pyridin-3-yl)piperazin-1-yl)methyl)-3-fluoropyrazolo[1,5-a]quinoxalin-4(5H)-one], the IC50 in test [2] (Homo sapiens, MDA-MB-436, […]) is 1.04 nM; in test [1] it was 880 nM.
In the case of `CNC(=O)c1ccc(N2CCN(Cc3ccc4c([nH]c(=O)c5c(C)cnn54)c3F)CC2)c(C)n1` [Example 57, 7-((4-(2-methyl-6-(methylcarbamoyl)pyridin-3-yl)piperazin-1-yl)methyl)-6-fluoro-3-methylpyrazolo[1,5-a]quinoxalin-4(5H)-one], the IC50 was 10.6 nM in test [2] (Homo sapiens, MDA-MB-436, […]); greater than 10000 nM in test [3]; greater than 30000 nM in test [1]; 1.95 nM in test [4].
As for `CNC(=O)c1ccc(N2CCN(Cc3ccc4c([nH]c(=O)c5c(C)cnn54)c3F)CC2)c(F)n1` [Example 58, 7-((4-(2-fluoro-6-(methylcarbamoyl)pyridin-3-yl)piperazin-1-yl)methyl)-6-fluoro-3-methylpyrazolo[1,5-a]quinoxalin-4(5H)-one], the IC50 in test [2] (Homo sapiens, MDA-MB-436, […]) is 2.99 nM; in test [3], greater than 10000 nM; in test [1], greater than 30000 nM; in test [4], 1.38 nM.
As for `CNC(=O)c1ccc(N2CCN(Cc3ccc4c([nH]c(=O)c5c(Cl)cnn54)c3F)CC2)c(F)n1` [Example 60, 7-((4-(2-fluoro-6-(methylcarbamoyl)pyridin-3-yl)piperazin-1-yl)methyl)-6-fluoro-3-chloro-pyrazolo[1,5-a]quinoxalin-4(5H)-one], the IC50 in test [2] (Homo sapiens, MDA-MB-436, […]) is 1.41 nM; in test [1], greater than 30000 nM.
Regarding `CCNC(=O)c1ccc(N2CCN(Cc3ccc4c([nH]c(=O)c5occc54)c3F)CC2)c(F)n1` [Example 66, 7-((4-(2-fluoro-6-(ethylcarbamoyl)pyridin-3-yl)piperazin-1-yl)methyl)-6-fluorofuro[2,3-c]quinolin-4(5H)-one], the IC50 in test [2] (Homo sapiens, MDA-MB-436, […]) was 3.4 nM; in test [3], 5000 nM; in test [1] it was 16600 nM; in test [4], 1.72 nM.
As to `O=C(NC1CC1)c1ccc(N2CCN(Cc3ccc4c([nH]c(=O)c5occc54)c3F)CC2)c(F)n1` [Example 67, 7-((4-(2-fluoro-6-(cyclopropylcarbamoyl)pyridin-3-yl)piperazin-1-yl)methyl)-6-fluorofuro[2,3-c]quinolin-4(5H)-one], the IC50 turned out to be 6.56 nM in test [2] (Homo sapiens, MDA-MB-436, […]) and 13900 nM in test [1].
Turning to `CNC(=O)c1ccc(N2CCN(Cc3ccc4c([nH]c(=O)c5occc54)c3F)CC2)c(Cl)n1` [Example 68, 7-((4-(2-chloro-6-(methylcarbamoyl)pyridin-3-yl)piperazin-1-yl)methyl)-6-fluorofuro[2,3-c]quinolin-4(5H)-one], the IC50 stood at 4.72 nM in test [2] (Homo sapiens, MDA-MB-436, […]); 1870 nM in test [3]; 22000 nM in test [1]; 0.52 nM in test [4].
For the molecule `CNC(=O)c1ccc(N2CCN(Cc3ccc4c([nH]c(=O)c5cnn(C)c54)c3F)CC2)c(F)n1` [Example 92, 6-fluoro-7-((4-(2-fluoro-6-(methylcarbamoyl)pyridin-3-yl)piperazin-1-yl)methyl)-1-methyl-1,5-dihydro-4H-pyrazolo[4,3-c]quinolin-4-one], the IC50 in test [2] (Homo sapiens, MDA-MB-436, […]) was 3.48 nM; in test [3], 199 nM; in test [1], greater than 30000 nM; in test [4] it was 0.44 nM.
Turning to `CNC(=O)c1ccc(N2CCN(Cc3ccc4c([nH]c(=O)c5nn(C)cc54)c3F)CC2)c(F)n1` [Example 93, 6-fluoro-7-((4-(2-fluoro-6-(methylcarbamoyl)pyridin-3-yl)piperazin-1-yl)methyl)-2-methyl-2,5-dihydro-4H-pyrazolo[3,4-c]quinolin-4-one], the IC50 was 3.76 nM in test [2] (Homo sapiens, MDA-MB-436, […]) and greater than 30000 nM in test [1].
On to `CNC(=O)c1ccc(N2CCN(Cc3cc4[nH]c(=O)c5occc5c4cc3F)CC2)c(F)n1` [Example 102, 7-((4-(2-fluoro-6-(methylcarbamoyl)pyridin-3-yl)piperazin-1-yl)methyl)-8-fluorofuro[2,3-c]quinolin-4(5H)-one], for which the IC50 in test [2] (Homo sapiens, MDA-MB-436, […]) was 5.5 nM; in test [3] it was 1330 nM; in test [1], greater than 30000 nM; in test [4], 1.89 nM.
On the same counts, the results for `CNC(=O)c1ccc(N2CCN(Cc3ccc4c(c3)[nH]c(=O)c3occc34)CC2)c(F)n1` [Example 112, 7-((4-(2-fluoro-6-(methylcarbamoyl)pyridin-3-yl)piperazin-1-yl)methyl)furo[2,3-c]quinolin-4(5H)-one] are 0.58 nM, 158 nM, 1300 nM and 0.26 nM.
Regarding `CNC(=O)c1ccc(N2CCN(Cc3ccc4c([nH]c(=O)c5cocc54)c3F)CC2)c(F)n1` [Example 115, 7-((4-(2-fluoro-6-(methylcarbamoyl)pyridin-3-yl)piperazin-1-yl)methyl)-6-fluorofuro[3,4-c]quinolin-4(5H)-one], the IC50 in test [2] (Homo sapiens, MDA-MB-436, […]) was 3.41 nM; in test [3], 340 nM; in test [1] it was 13800 nM; in test [4] it was 0.47 nM.
For `CNC(=O)c1ccc(N2CCN(Cc3ccc4c([nH]c(=O)c5c(F)cnn54)c3F)CC2)c(C)n1` [Example 121, 7-((4-(2-methyl-6-(methylcarbamoyl)pyridin-3-yl)piperazin-1-yl)methyl)-3,6-difluoropyrazolo[1,5-a]quinoxalin-4(5H)-one], the IC50 in test [2] (Homo sapiens, MDA-MB-436, […]) was found to be 1.72 nM; in test [3] it was 2820 nM; in test [1] it was 10500 nM; in test [4], 1.06 nM.
Consider `CNC(=O)c1ccc(N2CCN(Cc3ccc4c([nH]c(=O)c5c(F)cnn54)c3F)CC2)c(F)n1` [Example 122, 7-((4-(2-fluoro-6-(methylcarbamoyl)pyridin-3-yl)piperazin-1-yl)methyl)-3,6-difluoropyrazolo[1,5-a]quinoxalin-4(5H)-one], for which the half-inhibitory concentration (IC50) in test [2] is 1.32 nM; in test [3], 462 nM; in test [1], greater than 30000 nM; in test [4], 0.53 nM.
As for `CNC(=O)c1ccc(N2CCN(Cc3ccc4c([nH]c(=O)c5c(C)cnn54)c3F)CC2)c(Cl)n1` [Example 131, 7-((4-(2-chloro-6-(methylcarbamoyl)pyridin-3-yl)piperazin-1-yl)methyl)-6-fluoro-3-methylpyrazolo[1,5-a]quinoxalin-4(5H)-one], the IC50 is 3.12 nM in test [2] (Homo sapiens, MDA-MB-436, […]) and greater than 30000 nM in test [1].
As for `[2H]C([2H])([2H])NC(=O)c1ccc(N2CCN(Cc3ccc4c([nH]c(=O)c5c(C)cnn54)c3F)CC2)c(F)n1` [Example 159, 6-fluoro-7-((4-(2-fluoro-6-((methyl-d3)carbamoyl)pyridin-3-yl)piperazin-1-yl)methyl)-3-methylpyrazolo[1,5-a]quinoxalin-4(5H)-one], the IC50 was 3.91 nM in test [2] (Homo sapiens, MDA-MB-436, […]) and greater than 30000 nM in test [1].
On the same counts, the results for `CNC(=O)c1ccc(N2CCN(Cc3ccc4c([nH]c(=O)c5c(F)cnn54)c3Cl)CC2)c(F)n1` [Example 192, 3-fluoro-7-((4-(2-fluoro-6-(methylcarbamoyl)pyridin-3-yl)piperazin-1-yl)methyl)-6-chloropyrazolo[1,5-a]quinoxalin-4(5H)-one] are 5.58 nM and greater than 30000 nM.
